In PMC8062481, “Crystal structures of an E1–E2–ubiquitin thioester mimetic reveal molecular mechanisms of transthioesterification” (Nature Communications, 2021):

What was measured:
[1] = target: T1, Uba1–Cdc34^A141K–Ub(t) (covalently trapped E1–E2–ubiquitin thioester mimetic) (Saccharomyces cerevisiae, UniProt P22515); assay: X-ray crystallography, […] Å; conditions: crystals grown with 1 mM ATP, 5 mM MgCl2 and excess Ub; ATP binding pocket of Uba1 adenylation domain; AMP in seven of eight copies
T1 construct: Uba1 11-1024 and Cdc34 1-195 (A141K), N-terminal TEV-cleavable 6xHis, E. coli BL21(DE3); Uba1 C600-Cdc34 C95 disulfide; Ub Gly76 isopeptide-linked to Cdc34 K141; with Ubiquitin-conjugating enzyme E2-34 kDa; Ubiquitin

[2] = target: T2, S. cerevisiae Uba1 residues 11-1024 (S. cerevisiae, UniProt P22515 11-1024, Cys600 disulfide-linked to Cys95 of Cdc34 (in the crystallised complex)); assay: crystal structure; covalently trapped Uba1–Cdc34^A141K–Ub(t) complex (Cys600–Cys95 disulfide, A141K–Gly76 isopeptide bond), 100 μM, crystallised with free Ub (200 μM), 1 mM ATP and 5 mM MgCl2 at 18 °C; 3.43 Å; eight copies, four open and four closed; conditions: both partners purified
T2 construct: Uba1 (ubiquitin E1), S. cerevisiae, residues 11-1024; In the structure it is covalently trapped with Cdc34^A141K-Ub(t) through a disulfide between the catalytic cysteines; also called E1; ScUba1; source: E. coli BL21 (DE3) Codon Plus, purified (Ni-NTA, Superdex 200, MonoQ); not shown: His6, N-terminal, cleaved
T2 sequence (P22515 11-1024): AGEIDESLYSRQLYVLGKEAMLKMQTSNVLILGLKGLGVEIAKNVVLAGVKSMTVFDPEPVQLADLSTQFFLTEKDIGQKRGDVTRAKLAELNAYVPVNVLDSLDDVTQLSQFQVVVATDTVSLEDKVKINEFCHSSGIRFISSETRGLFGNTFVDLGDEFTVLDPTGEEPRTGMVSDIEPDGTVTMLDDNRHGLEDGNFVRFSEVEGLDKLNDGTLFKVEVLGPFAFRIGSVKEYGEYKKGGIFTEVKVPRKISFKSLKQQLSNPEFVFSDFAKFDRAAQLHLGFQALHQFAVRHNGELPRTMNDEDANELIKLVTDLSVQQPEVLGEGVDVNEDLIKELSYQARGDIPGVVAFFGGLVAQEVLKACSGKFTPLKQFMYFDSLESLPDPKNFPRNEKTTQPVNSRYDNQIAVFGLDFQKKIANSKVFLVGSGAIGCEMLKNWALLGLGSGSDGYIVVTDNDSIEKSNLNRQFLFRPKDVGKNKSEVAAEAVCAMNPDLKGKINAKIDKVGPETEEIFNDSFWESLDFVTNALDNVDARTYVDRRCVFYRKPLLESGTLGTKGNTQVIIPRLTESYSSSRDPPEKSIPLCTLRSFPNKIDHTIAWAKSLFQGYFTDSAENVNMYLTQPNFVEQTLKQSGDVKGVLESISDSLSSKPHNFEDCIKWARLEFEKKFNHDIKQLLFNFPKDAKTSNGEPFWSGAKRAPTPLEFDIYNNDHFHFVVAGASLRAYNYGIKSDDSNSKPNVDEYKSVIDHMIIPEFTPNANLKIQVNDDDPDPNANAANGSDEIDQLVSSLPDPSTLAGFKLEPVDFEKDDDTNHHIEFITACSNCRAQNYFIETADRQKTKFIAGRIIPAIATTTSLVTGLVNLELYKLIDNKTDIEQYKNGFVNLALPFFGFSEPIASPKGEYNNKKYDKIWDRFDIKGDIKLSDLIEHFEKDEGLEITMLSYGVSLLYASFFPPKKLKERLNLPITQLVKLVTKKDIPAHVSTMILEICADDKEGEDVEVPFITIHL

binding result [2]	Molecule	X-ray crystallography, 3.43 Å [1]
	Nc1ncnc2c1ncn2[C@@H]1O[C@H](COP(=O)(O)O)[C@@H](O)[C@H]1O [AMP]	strong electron density into which AMP (but not the β and γ phosphates of ATP)
binds	S. cerevisiae Cdc34 residues 1-195 with A141K (Cdc34^A141K) (enzyme, UniProt P14682 1-195, looked up, Lys141 (A141K) isopeptide-linked to Gly76 of Ub(t); Cys95 disulfide-linked to Cys600 of Uba1, Cdc34 (ubiquitin E2), S. cerevisiae, residues 1-195 (Cdc34^ΔCT) with A141K; Stands in the structure as the Cdc34^A141K-Ub(t) thioester mimetic cross-linked to Uba1; also called E2; Cdc34^ΔCT A141K; source: E. coli BL21 (DE3) Codon Plus, purified (Ni-NTA, Superdex 75, MonoQ); not shown: His6, N-terminal, cleaved) MSSRKSTASSLLLRQYRELTDPKKAIPSFHIELEDDSNIFTWNIGVMVLNEDSIYHGGFFKAQMRFPEDFPFSPPQFRFTPAIYHPNVYRDGRLCISILHQSGDPMTDEPDAETWSPVQTVESVLISIVSLLEDPNINSPKNVDAAVDYRKNPEQYKQRVKMEVERSKQDIPKGFIMPTSESAYISQSKLDEPES	
